The target of one experiment is T1, BRD4 BD2 (Homo sapiens, UniProt O60885).
T1 construct: HEK293 cells were transfected using NanoLuc-BRD4-BD1 or NanoLuc-BRD4-BD2 fusion vectors
The experiment is described as follows: NanoBRET bromodomain assay, NanoLuc-BRD4-BD2 in HEK293 cells. It is filed as binding. As to conditions: for Fold Selectivity BRD4 BD1/BD2: IC50 BD1/IC50 BD2, qualitative if an IC50 is at the upper limit. How it is done: (§1) Plates were then incubated at 37° C.+5% CO2 incubator for 2 hours.
(§2) Fold Selectivity Calculated (IC50 BD1/IC50 BD2).
In general terms: In BRET a luciferase serves as donor, and the signal depends on an acceptor being close.

The next experiment has as its target T2, BRD4 BD1 (Homo sapiens, UniProt O60885).
T2 construct: HEK293 cells were transfected using NanoLuc-BRD4-BD1 or NanoLuc-BRD4-BD2 fusion vectors
The experiment is described as follows: NanoBRET bromodomain assay, NanoLuc-BRD4-BD1 in HEK293 cells. The class given is binding. The method, then:
Exemplary compounds of the disclosure are active against BRD4 BD2 and selective over BRD4 BD1. BRD4 is a representative example of the BET family, as the binding sites of all BET family members are structurally similar. […] IC50s and fold selectivity's are determined as described below and are represented in Table 1.
as §1, §2

Structures are written as SMILES. Where only a bound is given, the exact number is not on record here.

A word on the IC50: it is the concentration needed to halve the response being measured. A low value points to greater potency. Turning to `Cc1cccc(C)c1Oc1cn(C2CC2)c(=O)cc1-c1cn(C)c(=O)c2[nH]c(-c3ccc(F)cc3F)cc12` [Example 39, 4-(1-cyclopropyl-5-(2,6-dimethylphenoxy)-2-oxo-1,2-dihydropyridin-4-yl)-2-(2,4-difluorophenyl)-6-methyl-1,6-dihydro-7H-pyrrolo[2,3-c]pyridin-7-one], the figures for the IC50 against BRD4 BD2 and against BRD4 BD1 were less than 10 nM and greater than 1000 nM, respectively. Also, the “Fold Selectivity BRD4 BD1/BD2” value on BRD4 BD2 is on record as “xxxx (Fold >1000)”.
Turning to `Cn1cc(-c2cc(=O)n(C3COC3)cc2-c2ccccc2)c2cc(-c3cnn(C(F)(F)F)c3)[nH]c2c1=O` [Example 5, 6-methyl-4-(1-(oxetan-3-yl)-2-oxo-5-phenyl-1,2-dihydropyridin-4-yl)-2-(1-(trifluoromethyl)-1H-pyrazol-4-yl)-1,6-dihydro-7H-pyrrolo[2,3-c]pyridin-7-one], the IC50 was 10 to 50 nM against BRD4 BD2 and greater than 1000 nM on BRD4 BD1. On BRD4 BD2, the “Fold Selectivity BRD4 BD1/BD2” value was “xxx (Fold >200 and ≤1000)”.
As to `Cc1cccc(C)c1Oc1cn(C)c(=O)cc1-c1cn(C)c(=O)c2[nH]c(-c3cccc(C(F)(F)F)c3F)cc12` [Example 98], the IC50 at BRD4 BD2 was 50 to 200 nM; at BRD4 BD1 it was greater than 1000 nM. The “Fold Selectivity BRD4 BD1/BD2” value on BRD4 BD2 is “xx (Fold >50 and ≤200)”.
`CC(C)n1cc(-c2cc3c(-c4cc(=O)n(C)cc4-c4cccc(CN5CCOCC5)c4)cn(C)c(=O)c3[nH]2)cn1` [Example 78]: at BRD4 BD2, the IC50 fell in the range of 10 to 50 nM; the “Fold Selectivity BRD4 BD1/BD2” value was “xxx (Fold >200 and ≤1000)”. The same compound showed an IC50 on BRD4 BD1 greater than 1000 nM.
Turning to `Cc1cc(-c2cc3c(-c4cc(=O)n(C)cc4-c4ccc5c(c4)COC5)cn(C)c(=O)c3[nH]2)cc(C)n1.Cl` [Example 33, 4-(5-(1,3-dihydroisobenzofuran-5-yl)-1-methyl-2-oxo-1,2-dihydropyridin-4-yl)-2-(2,6-dimethylpyridin-4-yl)-6-methyl-1,6-dihydro-7H-pyrrolo[2,3-c]pyridin-7-one hydrochloride], at BRD4 BD2, the IC50 is less than 10 nM and the “Fold Selectivity BRD4 BD1/BD2” value is on record as “xxxx (Fold >1000)”. Also, the IC50 at BRD4 BD1 was greater than 1000 nM.
`Cn1ccc(-c2cc3c(-c4cc(=O)n(C)cc4-c4ccccc4)cn(C)c(=O)c3[nH]2)cc1=O` [Example 81]: the IC50 was 50 to 200 nM against BRD4 BD2 and greater than 1000 nM on BRD4 BD1. Also, the “Fold Selectivity BRD4 BD1/BD2” value at BRD4 BD2 was “xx (Fold >50 and ≤200)”.
As for `Cc1cc(-c2cc3c(-c4cc(=O)n(C)cc4-c4ccc(C#N)cc4)cn(C)c(=O)c3[nH]2)cc(C)n1.Cl` [Example 29, 4-(4-(2-(2,6-dimethylpyridin-4-yl)-6-methyl-7-oxo-6,7-dihydro-1H-pyrrolo[2,3-c]pyridin-4-yl)-1-methyl-6-oxo-1,6-dihydropyridin-3-yl)benzonitrile hydrogen chloride], the IC50 at BRD4 BD2 is 10 to 50 nM; on BRD4 BD1 it was greater than 1000 nM. Further, at BRD4 BD2, the “Fold Selectivity BRD4 BD1/BD2” value is “xxx (Fold >200 and ≤1000)”.
As to `Cn1cc(-c2cccc(CS(C)(=O)=O)c2)c(-c2cn(C)c(=O)c3[nH]c(-c4ccc(F)cc4F)cc23)cc1=O` [Example 77], the results for the concentration for half-maximal inhibition (IC50) at BRD4 BD2 and against BRD4 BD1 were 50 to 200 nM and greater than 1000 nM, respectively. Besides, on BRD4 BD2, the “Fold Selectivity BRD4 BD1/BD2” value is “xx (Fold >50 and ≤200)”.
`Cn1cc(-c2cccc(CN3CCNCC3)c2)c(-c2cn(C)c(=O)c3[nH]c(-c4cnn(C(F)(F)F)c4)cc23)cc1=O` [Example 4, 6-methyl-4-(1-methyl-2-oxo-5-(3-(piperazin-1-ylmethyl)phenyl)-1,2-dihydropyridin-4-yl)-2-(1-(trifluoromethyl)-1H-pyrazol-4-yl)-1,6-dihydro-7H-pyrrolo[2,3-c]pyridin-7-one]: at BRD4 BD2, the IC50 was greater than 1000 nM; the “Fold Selectivity BRD4 BD1/BD2” value is “— (Fold ≥0 and ≤2)”. The compound also yielded an IC50 against BRD4 BD1 greater than 1000 nM.
Take `Cc1cccc(C)c1Oc1cn(C)c(=O)cc1-c1cn(C)c(=O)c2[nH]c(-c3cnn(C(F)F)c3)cc12` [Example 12, 2-(1-(difluoromethyl)-1H-pyrazol-4-yl)-4-(5-(2,6-dimethylphenoxy)-1-methyl-2-oxo-1,2-dihydropyridin-4-yl)-6-methyl-1,6-dihydro-7H-pyrrolo[2,3-c]pyridin-7-one]: on BRD4 BD2, the IC50 was 10 to 50 nM; the “Fold Selectivity BRD4 BD1/BD2” value is “xxx (Fold >200 and ≤1000)”. This compound also yielded an IC50 on BRD4 BD1 greater than 1000 nM.
Turning to `Cc1cc(-c2cc3c(-c4cc(=O)n(C)cc4-c4cccc(S(C)(=O)=O)c4)cn(C)c(=O)c3[nH]2)cc(C)n1` [Example 89], at BRD4 BD2, the IC50 fell in the range of 50 to 200 nM; the “Fold Selectivity BRD4 BD1/BD2” value was “xx (Fold >50 and ≤200)”. The same compound showed an IC50 against BRD4 BD1 greater than 1000 nM.
Regarding `CSCc1ccc(-c2cn(C)c(=O)cc2-c2cn(C)c(=O)c3[nH]c(-c4cnn(C(F)(F)F)c4)cc23)cc1` [Example 24, 6-methyl-4-(1-methyl-5-(4-((methylthio)methyl)phenyl)-2-oxo-1,2-dihydropyridin-4-yl)-2-(1-(trifluoromethyl)-1H-pyrazol-4-yl)-1,6-dihydro-7H-pyrrolo[2,3-c]pyridin-7-one], at BRD4 BD2, the IC50 was less than 10 nM and the “Fold Selectivity BRD4 BD1/BD2” value was “xxxx (Fold >1000)”. On BRD4 BD1, this compound came in with an IC50 greater than 1000 nM.
As to `Cn1cc(-c2cccc(CS(C)(=O)=O)c2)c(-c2cn(C)c(=O)c3[nH]c(-c4cnn(C(F)(F)F)c4)cc23)cc1=O` [Example 2, 6-methyl-4-(1-methyl-5-(3-((methylsulfonyl)methyl)phenyl)-2-oxo-1,2-dihydropyridin-4-yl)-2-(1-(trifluoromethyl)-1H-pyrazol-4-yl)-1,6-dihydro-7H-pyrrolo[2,3-c]pyridin-7-one], at BRD4 BD2, the IC50 was 50 to 200 nM; the “Fold Selectivity BRD4 BD1/BD2” value is “xx (Fold >50 and ≤200)”. The IC50 against BRD4 BD1 is greater than 1000 nM.
With `Cn1cc(-c2ccccc2)c(-c2cn(C)c(=O)c3[nH]c(-c4cnn(C(F)(F)F)c4)c(F)c23)cc1=O` [Example 21, 3-fluoro-6-methyl-4-(1-methyl-2-oxo-5-phenyl-1,2-dihydropyridin-4-yl)-2-(1-(trifluoromethyl)-1H-pyrazol-4-yl)-1,6-dihydro-7H-pyrrolo[2,3-c]pyridin-7-one], at BRD4 BD2, the IC50 was less than 10 nM and the “Fold Selectivity BRD4 BD1/BD2” value is “xxxx (Fold >1000)”. Further, the IC50 on BRD4 BD1 is greater than 1000 nM.
On to `Cn1cc(-c2cccc3c2COC3)c(-c2cn(C)c(=O)c3[nH]c(-c4ccc(F)cc4F)cc23)cc1=O` [Example 6, 2-(2,4-difluorophenyl)-4-(5-(1,3-dihydroisobenzofuran-4-yl)-1-methyl-2-oxo-1,2-dihydropyridin-4-yl)-6-methyl-1,6-dihydro-7H-pyrrolo[2,3-c]pyridin-7-one], for which the IC50 is less than 10 nM on BRD4 BD2 and greater than 1000 nM against BRD4 BD1. The “Fold Selectivity BRD4 BD1/BD2” value on BRD4 BD2 was “xxxx (Fold >1000)”.
With `Cn1cc(-c2ccccc2)c(-c2cn(C)c(=O)c3[nH]c(-c4cccc(C5COC5)c4)cc23)cc1=O` [Example 84], on BRD4 BD2, the IC50 was less than 10 nM; the “Fold Selectivity BRD4 BD1/BD2” value was “xx (Fold >50 and ≤200)”. In addition, the IC50 on BRD4 BD1 is 50 to 500 nM.
In the case of `Cc1cccc(C)c1Oc1cn(C)c(=O)cc1-c1cn(C)c(=O)c2[nH]c(-c3cnn(CCF)c3)cc12` [Example 14, 4-(5-(2,6-dimethylphenoxy)-1-methyl-2-oxo-1,2-dihydropyridin-4-yl)-2-(1-(2-fluoroethyl)-1H-pyrazol-4-yl)-6-methyl-1,6-dihydro-7H-pyrrolo[2,3-c]pyridin-7-one], at BRD4 BD2, the IC50 is less than 10 nM; the “Fold Selectivity BRD4 BD1/BD2” value is “x (Fold >2 and ≤50)”. Further, the IC50 against BRD4 BD1 fell in the range of 50 to 500 nM.
As to `Cn1cc(-c2ccccc2)c(-c2cn(C)c(=O)c3[nH]c(-c4cnn(C(F)(F)F)c4)cc23)cc1=O` [Example 34, 6-methyl-4-(1-methyl-2-oxo-5-phenyl-1,2-dihydropyridin-4-yl)-2-(1-(trifluoromethyl)-1H-pyrazol-4-yl)-1,6-dihydro-7H-pyrrolo[2,3-c]pyridin-7-one], the IC50 against BRD4 BD2 was less than 10 nM; on BRD4 BD1 it was greater than 1000 nM. For the same compound, the “Fold Selectivity BRD4 BD1/BD2” value on BRD4 BD2 is “xxxx (Fold >1000)”.
On to `CC(C)n1cc(-c2cc3c(-c4cc(=O)n(C)cc4-c4cccc(CS(C)(=O)=O)c4)cn(C)c(=O)c3[nH]2)cn1` [Example 72], for which the IC50 on BRD4 BD2 was 200 to 1000 nM; at BRD4 BD1 it was greater than 1000 nM. Further, at BRD4 BD2, the “Fold Selectivity BRD4 BD1/BD2” value is “x (Fold >2 and ≤50)”.
As for `COCc1ccc(-c2cn(C)c(=O)cc2-c2cn(C)c(=O)c3[nH]c(-c4cnn(C(F)(F)F)c4)cc23)cc1` [Example 8, 4-(5-(4-(methoxymethyl)phenyl)-1-methyl-2-oxo-1,2-dihydropyridin-4-yl)-6-methyl-2-(1-(trifluoromethyl)-1H-pyrazol-4-yl)-1,6-dihydro-7H-pyrrolo[2,3-c]pyridin-7-one], at BRD4 BD2, the IC50 is less than 10 nM and the “Fold Selectivity BRD4 BD1/BD2” value is “xxxx (Fold >1000)”. The compound further yielded an IC50 against BRD4 BD1 greater than 1000 nM.
As to `Cn1cc(-c2ccccc2)c(-c2cn(C)c(=O)c3[nH]c(-c4c(F)cccc4F)cc23)cc1=O` [Example 82], the IC50 at BRD4 BD2 was 50 to 200 nM; at BRD4 BD1 it was greater than 1000 nM. Moreover, the “Fold Selectivity BRD4 BD1/BD2” value on BRD4 BD2 is “xx (Fold >50 and ≤200)”.
Consider `CCCn1cc(-c2cc3c(-c4cc(=O)n(C)cc4Oc4c(C)cccc4C)cn(C)c(=O)c3[nH]2)cn1` [Example 41, 4-(5-(2,6-dimethylphenoxy)-1-methyl-2-oxo-1,2-dihydropyridin-4-yl)-6-methyl-2-(1-propyl-1H-pyrazol-4-yl)-1,6-dihydro-7H-pyrrolo[2,3-c]pyridin-7-one], for which the IC50 against BRD4 BD2 was less than 10 nM; against BRD4 BD1, greater than 1000 nM. The “Fold Selectivity BRD4 BD1/BD2” value at BRD4 BD2 is reported as “xxxx (Fold >1000)”.
With `Cc1cc(-c2cc3c(-c4cc(=O)n(C)cc4-c4ccc(S(C)(=O)=O)cc4)cn(C)c(=O)c3[nH]2)cc(C)n1` [Example 86], at BRD4 BD2, the IC50 lay within 200 to 1000 nM; the “Fold Selectivity BRD4 BD1/BD2” value was “x (Fold >2 and ≤50)”. In addition, the IC50 at BRD4 BD1 was greater than 1000 nM.

The values are drawn from US20260217701A1, “SELECTIVE BET INHIBITORS AND USES THEREOF” (Tay Therapeutics Limited, priority 2022, published 2026).
